Patent publication US20240382629A1, “HETEROBIVALENT AND HOMOBIVALENT AGENTS TARGETING FIBROBLAST ACTIVATION PROTEIN ALPHA AND/OR PROSTATE-SPECIFIC MEMBRANE ANTIGEN” (The Johns Hopkins University, priority 2021, published 2024)
“And” between values parts separate entries of the source, which are not always exact repeats. Equal values may be shown once.

Tested on: U87 tumor
Experiment: Biodistribution ([^18F]JHU1221823), carrier / specific activity study
Format: in vivo, mouse
Conditions: individual mouse
Source text: Biodistribution of Representative Compounds

[1] = + 0.05 nmole carrier, 60 min post injection
[2] = + 0.1 nmole carrier, 60 min post injection
[3] = + 0.25 nmole carrier, 60 min post injection
[4] = NOD/SCID, U87 tumor, Carrier 350 (350 mCi/μmol), 60 min post injection
[5] = NOD/SCID, U87 tumor, Carrier 700, 60 min post injection

Structure (SMILES): N#C[C@@H]1CCCN1C(=O)CNC(=O)c1ccnc2ccc(OCCCNC(=O)CCOCCOCCOCCOCCNC(=O)[C@H](CCCCNC(=O)c3ccc([18F])nc3)NC(=O)CN3CCN(CC(=O)O)CCN(CC(=O)O)CCN(CC(=O)O)CC3)cc12 [[^18F]JHU1221823]
- Bladder % ID/g (+ 0.01 nmole carrier): 1.82 % ID/g and 2.18 % ID/g
- Blood % ID/g (+ 0.01 nmole carrier): 11.19 % ID/g and 11.39 % ID/g
- Brain % ID/g (+ 0.01 nmole carrier): 0.32 % ID/g and 0.28 % ID/g
- Fat % ID/g (+ 0.01 nmole carrier): 0.23 % ID/g and 0.44 % ID/g
- Femur % ID/g (+ 0.01 nmole carrier): 3.05 % ID/g and 4.01 % ID/g
- Heart % ID/g (+ 0.01 nmole carrier): 4.74 % ID/g and 4.50 % ID/g
- Kidney % ID/g (+ 0.01 nmole carrier): 2.82 % ID/g and 3.11 % ID/g
- Large intestine % ID/g (+ 0.01 nmole carrier): 1.60 % ID/g and 1.63 % ID/g
- Liver % ID/g (+ 0.01 nmole carrier): 2.78 % ID/g and 3.40 % ID/g
- Lung % ID/g (+ 0.01 nmole carrier): 6.08 % ID/g and 6.21 % ID/g
- Muscle % ID/g (+ 0.01 nmole carrier): 2.03 % ID/g and 1.73 % ID/g
- Pancreas % ID/g (+ 0.01 nmole carrier): 4.01 % ID/g and 4.14 % ID/g
- Salivary gland % ID/g (+ 0.01 nmole carrier): 7.47 % ID/g and 7.48 % ID/g
- Small intestine % ID/g (+ 0.01 nmole carrier): 2.22 % ID/g and 2.17 % ID/g
- Spleen % ID/g (+ 0.01 nmole carrier): 1.88 % ID/g and 2.13 % ID/g
- Stomach % ID/g (+ 0.01 nmole carrier): 1.33 % ID/g and 1.65 % ID/g
- Tumor % ID/g (+ 0.01 nmole carrier): 1.88 % ID/g and 2.86 % ID/g
- Bladder % ID/g [1]: 6.14 % ID/g and 2.43 % ID/g
- Blood % ID/g [1]: 7.42 % ID/g and 7.67 % ID/g
- Brain % ID/g [1]: 0.20 % ID/g and 0.21 % ID/g
- Fat % ID/g [1]: 0.94 % ID/g and 0.61 % ID/g
- Femur % ID/g [1]: 2.83 % ID/g and 3.67 % ID/g
- Heart % ID/g [1]: 3.03 % ID/g and 3.04 % ID/g
- Kidney % ID/g [1]: 2.02 % ID/g and 2.55 % ID/g
- Large intestine % ID/g [1]: 1.48 % ID/g and 1.58 % ID/g
- Liver % ID/g [1]: 1.92 % ID/g and 2.34 % ID/g
- Lung % ID/g [1]: 4.05 % ID/g and 4.16 % ID/g
- Muscle % ID/g [1]: 1.47 % ID/g and 2.20 % ID/g
- Pancreas % ID/g [1]: 4.01 % ID/g and 6.69 % ID/g
- Salivary gland % ID/g [1]: 10.22 % ID/g and 11.63 % ID/g
- Small intestine % ID/g [1]: 1.46 % ID/g and 2.18 % ID/g
- Spleen % ID/g [1]: 1.37 % ID/g and 1.62 % ID/g
- Stomach % ID/g [1]: 1.07 % ID/g and 1.48 % ID/g
- Tumor % ID/g [1]: 2.59 % ID/g and 4.26 % ID/g
- Bladder % ID/g [2]: 1.62 % ID/g and 1.87 % ID/g
- Blood % ID/g [2]: 3.88 % ID/g and 4.32 % ID/g
- Brain % ID/g [2]: 0.08 % ID/g and 0.17 % ID/g
- Fat % ID/g [2]: 2.17 % ID/g and 1.13 % ID/g
- Femur % ID/g [2]: 3.44 % ID/g and 4.00 % ID/g
- Heart % ID/g [2]: 1.80 % ID/g and 1.87 % ID/g
- Kidney % ID/g [2]: 2.03 % ID/g and 2.00 % ID/g
- Large intestine % ID/g [2]: 2.91 % ID/g and 1.79 % ID/g
- Liver % ID/g [2]: 1.01 % ID/g and 1.30 % ID/g
- Lung % ID/g [2]: 2.31 % ID/g and 2.83 % ID/g
- Muscle % ID/g [2]: 1.69 % ID/g and 2.25 % ID/g
- Pancreas % ID/g [2]: 4.18 % ID/g and 5.17 % ID/g
- Salivary gland % ID/g [2]: 7.28 % ID/g and 9.35 % ID/g
- Small intestine % ID/g [2]: 1.66 % ID/g and 1.63 % ID/g
- Spleen % ID/g [2]: 0.91 % ID/g and 1.01 % ID/g
- Stomach % ID/g [2]: 0.89 % ID/g and 1.12 % ID/g
- Tumor % ID/g [2]: 5.48 % ID/g and 4.73 % ID/g
- Bladder % ID/g [3]: 3.04 % ID/g and 1.98 % ID/g
- Blood % ID/g [3]: 1.76 % ID/g and 2.03 % ID/g
- Brain % ID/g [3]: 0.08 % ID/g
- Fat % ID/g [3]: 0.65 % ID/g and 0.37 % ID/g
- Femur % ID/g [3]: 3.97 % ID/g and 4.56 % ID/g
- Heart % ID/g [3]: 0.91 % ID/g
- Kidney % ID/g [3]: 1.70 % ID/g and 2.15 % ID/g
- Large intestine % ID/g [3]: 0.62 % ID/g and 0.68 % ID/g
- Liver % ID/g [3]: 0.73 % ID/g and 0.77 % ID/g
- Lung % ID/g [3]: 1.17 % ID/g and 1.57 % ID/g
- Muscle % ID/g [3]: 1.32 % ID/g and 1.19 % ID/g
- Pancreas % ID/g [3]: 2.11 % ID/g and 1.42 % ID/g
- Salivary gland % ID/g [3]: 3.78 % ID/g and 2.85 % ID/g
- Small intestine % ID/g [3]: 0.75 % ID/g and 1.07 % ID/g
- Spleen % ID/g [3]: 0.44 % ID/g and 0.48 % ID/g
- Stomach % ID/g [3]: 0.61 % ID/g and 0.77 % ID/g
- Tumor % ID/g [3]: 3.93 % ID/g and 3.11 % ID/g
- Bladder % ID/g [4]: 2.09 % ID/g and 6.57 % ID/g
- Blood % ID/g [4]: 3.99 % ID/g and 4.29 % ID/g
- Brain % ID/g [4]: 0.10 % ID/g and 0.09 % ID/g
- Fat % ID/g [4]: 0.89 % ID/g and 0.82 % ID/g
- Femur % ID/g [4]: 3.67 % ID/g and 3.18 % ID/g
- Heart % ID/g [4]: 2.25 % ID/g and 2.02 % ID/g
- Kidney % ID/g [4]: 2.00 % ID/g and 2.27 % ID/g
- Large intestine % ID/g [4]: 2.18 % ID/g and 1.97 % ID/g
- Liver % ID/g [4]: 1.71 % ID/g and 1.81 % ID/g
- Lung % ID/g [4]: 2.51 % ID/g and 2.98 % ID/g
- Muscle % ID/g [4]: 2.02 % ID/g and 2.04 % ID/g
- Pancreas % ID/g [4]: 10.66 % ID/g and 9.69 % ID/g
- Salivary gland % ID/g [4]: 9.63 % ID/g and 9.35 % ID/g
- Small intestine % ID/g [4]: 2.86 % ID/g and 1.91 % ID/g
- Spleen % ID/g [4]: 1.60 % ID/g and 1.01 % ID/g
- Stomach % ID/g [4]: 1.47 % ID/g
- Tumor % ID/g [4]: 8.22 % ID/g and 9.06 % ID/g
- Bladder % ID/g [5]: 8.20 % ID/g
- Blood % ID/g [5]: 5.82 % ID/g
- Brain % ID/g [5]: 0.16 % ID/g
- Fat % ID/g [5]: 0.90 % ID/g
- Femur % ID/g [5]: 2.41 % ID/g
- Heart % ID/g [5]: 3.48 % ID/g
- Kidney % ID/g [5]: 2.45 % ID/g
- Large intestine % ID/g [5]: 2.26 % ID/g
